From article PMC7392643, “Antibiotic fidaxomicin is an RdRp inhibitor as a potential new therapeutic agent against Zika virus” (BMC Medicine, 2020)

How the values were obtained:
[1] = target: T1, ZIKV NS5 full-length protein (Zika virus, UniProt A0A024B7W1); test: SPR (BIAcore) binding to ZIKV NS5 full-length protein; settings: qualitative
T1 construct: NS5 (amino acids 1 to 903); His tag (8x histidine) (N); made in house; host or cells: Escherichia coli (Rosetta)
Experimental: (§1) The cDNA fragment of ZIKV (ZG-01 strain) NS5 (amino acids 1 to 903), RdRp (amino acids 272 to 903), or DENV2 NS5 (amino acids 1 to 900) containing an N-terminal His tag sequence was cloned into a pET-30a-mutant vector. For protein expression, the plasmids were transformed into Rosetta™ competent cells (TIANGEN BIOTECH Co., Ltd., Beijing, China), respectively. […] Mass spectrometry was performed by Shanghai Applied Protein Technology Co. Ltd. (Shanghai, China). The concentration of a targeted protein was measured by SDS-PAGE using BSA (Sigma, St. Louis, MO) as a standard.
Surface plasmon resonance (SPR) experiments were performed in a BIAcore T100 device (BIAcore Inc., Uppsala, Sweden) using CM5 sensor chips (General Electric Company, GE) according to the protocol provided by the manufacturer. Briefly, recombinant ZIKV NS5 protein, RdRp protein, or DENV2 NS5 protein was immobilized on a CM5 chip, respectively. Different concentrations of fidaxomicin or ribavirin were injected at a flow rate of 30 μL/min for 3 min. Subsequently, data were collected for a 3-min association followed by a 20-min dissociation. The chip was regenerated by injecting 10 μL of 15 mM NaOH for 20 s. […] The binding kinetics was analyzed with the software BIAevaluation version 3.1 using a 1:1 Langmuir binding model. The Kd was calculated as previously described.

ZIKV RdRp protein = target: T2, ZIKV RdRp protein (Zika virus, UniProt A0A024B7W1); test: SPR (BIAcore) binding to ZIKV RdRp protein; settings: qualitative
T2 construct: RdRp (amino acids 272 to 903); His tag (8x histidine) (N); made in house; host or cells: Escherichia coli (Rosetta)
T2 sequence (A0A024B7W1 2792-3423): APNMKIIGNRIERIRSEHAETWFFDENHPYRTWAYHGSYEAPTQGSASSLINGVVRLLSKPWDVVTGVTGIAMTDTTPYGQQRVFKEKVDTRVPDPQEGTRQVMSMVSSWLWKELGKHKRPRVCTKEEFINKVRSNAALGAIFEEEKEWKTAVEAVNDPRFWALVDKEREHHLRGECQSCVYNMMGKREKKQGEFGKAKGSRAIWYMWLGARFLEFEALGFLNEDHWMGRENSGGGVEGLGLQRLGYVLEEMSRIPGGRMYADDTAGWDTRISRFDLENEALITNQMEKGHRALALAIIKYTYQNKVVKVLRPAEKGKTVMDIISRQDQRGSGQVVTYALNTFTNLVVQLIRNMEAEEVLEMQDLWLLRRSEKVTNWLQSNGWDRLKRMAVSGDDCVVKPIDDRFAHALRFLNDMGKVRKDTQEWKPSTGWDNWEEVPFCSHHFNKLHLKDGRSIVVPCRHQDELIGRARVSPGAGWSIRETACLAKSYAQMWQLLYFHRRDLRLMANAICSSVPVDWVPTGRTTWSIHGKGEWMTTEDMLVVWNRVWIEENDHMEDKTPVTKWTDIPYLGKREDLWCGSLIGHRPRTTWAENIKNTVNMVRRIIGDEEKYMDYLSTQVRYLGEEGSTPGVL
Experimental: as §1
Surface plasmon resonance (SPR) experiments were performed in a BIAcore T100 device (BIAcore Inc., Uppsala, Sweden) using CM5 sensor chips (General Electric Company, GE) according to the protocol provided by the manufacturer. Briefly, recombinant ZIKV NS5 protein, RdRp protein, or DENV2 NS5 protein was immobilized on a CM5 chip, respectively. Different concentrations of fidaxomicin or ribavirin were injected at a flow rate of 30 μL/min for 3 min. Subsequently, data were collected for a 3-min association followed by a 20-min dissociation. The chip was regenerated by injecting 10 μL of 15 mM NaOH for 20 s. All procedures were run in 1% DMSO PBS-P20 (GE) as a running buffer. The binding kinetics was analyzed with the software BIAevaluation version 3.1 using a 1:1 Langmuir binding model. The Kd was calculated as previously described.

ZIKV ZG-01 strain = test: In vitro antiviral assay, plaque assay, ZIKV ZG-01; settings: for EC50 / EC90: Zika virus
Experimental: The anti-ZIKV activity of fidaxomicin and ribavirin was evaluated in vitro by plaque assay. Various cell lines, including SNB19 (6 × 10^4/well, 10% FBS DMEM), A172 (7 × 10^4/well, 10% FBS DMEM), Vero (6 × 10^4/well 10% FBS DMEM), Huh7 (7 × 10^4/well, 10% FBS DMEM), HUVECs (7 × 10^4/well, 15% FBS M199 medium supplemented with 2 mM L-glutamine, 0.02 mg/mL endothelial cell growth supplement, and 0.05 mg/mL heparin), and A549 (6 × 10^4/well, 5% FBS DMEM), were plated in 12-well plates and allowed to attach overnight, followed by infection with ZIKV (ZG-01 strain or MR766 strain, respectively, at indicated MOI) in the presence of different concentrations of fidaxomicin, ribavirin, or vehicle control for 1 h, followed by two washes with 1 × PBS and incubated with fresh medium (without virus) consisting of corresponding concentrations of the compounds for further 48 h. The cell supernatants were collected to quantify ZIKV infection by plaque assay as previously described or by RT-qPCR. […] The anti-DENV activity of fidaxomicin was evaluated in vitro by RT-qPCR.

ZIKV MR766 strain = test: In vitro antiviral assay, plaque assay, ZIKV MR766; format: cell-based; settings: Zika virus, 48 h
Experimental: Various cell lines, including SNB19 (6 × 10^4/well, 10% FBS DMEM), A172 (7 × 10^4/well, 10% FBS DMEM), Vero (6 × 10^4/well 10% FBS DMEM), Huh7 (7 × 10^4/well, 10% FBS DMEM), HUVECs (7 × 10^4/well, 15% FBS M199 medium supplemented with 2 mM L-glutamine, 0.02 mg/mL endothelial cell growth supplement, and 0.05 mg/mL heparin), and A549 (6 × 10^4/well, 5% FBS DMEM), were plated in 12-well plates and allowed to attach overnight, followed by infection with ZIKV (ZG-01 strain or MR766 strain, respectively, at indicated MOI) in the presence of different concentrations of fidaxomicin, ribavirin, or vehicle control for 1 h, followed by two washes with 1 × PBS and incubated with fresh medium (without virus) consisting of corresponding concentrations of the compounds for further 48 h. The cell supernatants were collected to quantify ZIKV infection by plaque assay as previously described [47] or by RT-qPCR.

in vitro = settings: African green monkey
Experimental: Cell viability was detected by the 3-(4,5-dimethyl-2-thiazolyl)-2,5-diphenyl-2H-tetrazolium bromide (MTT) assay according to a previously described method [48]. Briefly, cells were seeded in 96-well plates at a density of 1 × 10^4 cells per well and cultured at 37 °C for 24 h, followed by exposure to the serially diluted fidaxomicin or ribavirin separately for 48 h. Cell survival rate was determined by MTT reduction assay according to the manufacturer’s protocol (Invitrogen). The 50% cytotoxic concentration (CC50) was defined as the compound concentration required to inhibit the cell growth by 50% compared with the control assay. The assay was performed in triplicates in three independent experiments.

T1 sequence (A0A024B7W1 2521-3423): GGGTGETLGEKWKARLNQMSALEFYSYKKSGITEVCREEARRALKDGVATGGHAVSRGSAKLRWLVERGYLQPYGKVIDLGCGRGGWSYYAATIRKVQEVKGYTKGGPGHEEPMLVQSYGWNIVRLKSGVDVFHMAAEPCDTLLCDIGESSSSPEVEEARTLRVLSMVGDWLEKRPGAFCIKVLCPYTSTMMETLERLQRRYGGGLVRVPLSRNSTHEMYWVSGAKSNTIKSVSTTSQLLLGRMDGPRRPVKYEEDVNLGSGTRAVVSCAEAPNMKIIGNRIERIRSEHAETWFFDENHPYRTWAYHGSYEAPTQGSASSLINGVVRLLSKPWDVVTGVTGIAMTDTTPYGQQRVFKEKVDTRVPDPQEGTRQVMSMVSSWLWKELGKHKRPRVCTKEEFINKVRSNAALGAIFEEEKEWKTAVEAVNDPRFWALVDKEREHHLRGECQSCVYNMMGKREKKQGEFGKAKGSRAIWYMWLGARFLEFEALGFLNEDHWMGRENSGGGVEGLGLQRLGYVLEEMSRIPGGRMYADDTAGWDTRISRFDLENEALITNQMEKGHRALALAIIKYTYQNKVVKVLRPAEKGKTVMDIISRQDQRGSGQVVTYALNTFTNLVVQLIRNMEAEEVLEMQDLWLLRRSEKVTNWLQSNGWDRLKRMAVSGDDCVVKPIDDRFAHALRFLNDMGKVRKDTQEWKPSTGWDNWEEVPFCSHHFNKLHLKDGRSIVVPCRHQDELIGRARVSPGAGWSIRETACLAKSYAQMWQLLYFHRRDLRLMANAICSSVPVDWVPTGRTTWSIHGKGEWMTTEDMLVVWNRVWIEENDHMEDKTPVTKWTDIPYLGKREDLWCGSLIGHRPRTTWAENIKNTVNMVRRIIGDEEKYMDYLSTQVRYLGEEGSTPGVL

NC(=O)c1ncn([C@@H]2O[C@H](CO)[C@@H](O)[C@H]2O)n1 [Ribavirin, ribavirin]
binding to ZIKV NS5 protein (SPR) [1]: very weak interaction | binding to ZIKV RdRp protein (SPR) (ZIKV RdRp protein): weak | efficacy against ZIKV infection under non-cytotoxic concentration (ZIKV ZG-01 strain; SNB19 cells): far less effective | EC50 (ZIKV ZG-01 strain; A549, 48 h): 33.2 ± 3.4 µM | EC90 (ZIKV ZG-01 strain; A549, 48 h): 71.6 ± 6.2 µM | EC50 (ZIKV ZG-01 strain; Huh-7, 48 h): 12.7 ± 2.3 µM | EC90 (ZIKV ZG-01 strain; Huh-7, 48 h): 54.3 ± 3.5 µM | EC50 (ZIKV ZG-01 strain; SNB-19, 48 h): > 100 µM | EC90 (ZIKV ZG-01 strain; SNB-19, 48 h): > 100 µM | EC50 (ZIKV ZG-01 strain; Vero, 48 h): > 100 µM | EC90 (ZIKV ZG-01 strain; Vero, 48 h): > 100 µM | EC50 (ZIKV MR766 strain; A549 cells): 35.2 ± 5.2 µM | EC90 (ZIKV MR766 strain; A549 cells): 74.6 ± 8.5 µM | EC50 (ZIKV MR766 strain; Huh-7, Huh7 cells): 15.6 ± 2.1 µM | EC90 (ZIKV MR766 strain; Huh-7, Huh7 cells): 58.3 ± 3.2 µM | EC50 (ZIKV MR766 strain; SNB-19, SNB19 cells): > 100 µM | EC90 (ZIKV MR766 strain; SNB-19, SNB19 cells): > 100 µM | EC50 (ZIKV MR766 strain; Vero cells): > 100 µM | EC90 (ZIKV MR766 strain; Vero cells): > 100 µM | CC50 at 48 h (in vitro): 486 ± 20.1 µM
